Consider one molecule from patent US20250367218A1, “METHODS OF TREATING METABOLIC DISORDERS AND COMBINATION PRODUCTS FOR USE IN THE SAME” (INSTITUT PASTEUR DE MONTEVIDEO, priority 2024, published 2025).

Each structure is given as a SMILES string.

Experiment [1] in a line: Body weight of obese mice fed a high-fat diet (HFD) during treatment. In kind it is in vivo, C57BL/6J mice. Here is the method: (§1) All studies conducted in mice utilized C57BL/6J mice maintained at the Institut Pasteur de Montevideo Animal facility (UBAL). Experimental protocols were approved by the Institutional Animal Care and Use Committee of the Institut Pasteur de Montevideo (CEUA, Protocol numbers 003-19 and 006-19). Studies were performed according to the methods approved in the protocols. All the experiments were performed on adult male mice (10-12 weeks of age) and were conducted at either 22° C. with free access to food and water. Unless specified, mice were housed at 22° C. in groups of five.
High-fat diet (HFD) feeding: Male C57BL/6J mice housed at 22° C. were fed a high-fat diet (42% fat and 0.25% cholesterol, AlN93G, LabDiet, USA), starting at 12 weeks of age and for a duration of 5 weeks prior to beginning administration of any active pharmaceutical ingredients. After the onset of the treatment, HFD ad libitum was maintained until the end of the experiments.
Drug delivery: SANA was administered orally (PO) by mixing with the food (50, 100, or 200 mg/kg/day), or subcutaneously (SC, 10, 15, or 20 mg/kg/day in 100 mM phosphate buffer, pH 6.5). In all cases the vehicle was used as control. Liraglutide (Novo Nordisk, Denmark) was administered daily, subcutaneously (SC, 0.2 mg/kg/day). Semaglutide (Ozempic®, Novo Nordisk, Denmark) was administered subcutaneously (SC, 2 nmol/kg/day or 40 mg/kg every 3 days).
Mice were fed with a high fat diet (HFD) for 5 weeks prior to the initiation of treatment, and the high-fat diet continued during a 2-week treatment period. FIGS. 1A-1B show graphs of average mouse weight without treatment (HFD, n=8), treatment with SANA (HFD+SANA, 200 mg/kg/day, n=9), treatment with liraglutide (HFD+LIRA, 0.2 mg/kg/day, n=8), or treatment with a combination of SANA (200 mg/kg/day) and liraglutide (0.2 mg/kg/day) (HFD+SANA+LIRA, n=10).
FIGS. 3A and 3B show graphs of the average mouse weight without treatment (n=9), treatment with SANA (15 mg/kg/day, n=8), treatment with semaglutide (2 nmol/kg/day, n=10), or treatment with a combination of SANA (15 mg/kg/day) and semaglutide (2 nmol/kg/day) (n=10). Mice were fed with a high fat diet (HFD) for 5.5 weeks prior to the initiation of treatment, and the high-fat diet continued during the 3-week treatment period. Referring to FIGS. 3A and 3B, obese mice administered SANA alone (HFD+SANA) or semaglutide alone (HFD+SEMA) experienced an average weight loss of about 5% after three weeks.
In a separate experiment, different doses of subcutaneous semaglutide alone were compared to treatment with oral administration of SANA alone, and to treatment with a combination of oral SANA and two different doses of subcutaneous semaglutide. […]

The nature of experiment [2]: Weight regain of HFD mice after discontinuation of treatment (rebound effect). Format: in vivo, C57BL/6J mice. Here is the method: Comparison of weight regain in mice following discontinuation of treatment with SANA or a GLP-1 agonist was measured in order to quantify the “rebound effect” as a result of discontinuing treatment. Mice were fed a high-fat diet for a period of 5 weeks, and were then untreated (HFD), treated with GLP-1 agonist (liraglutide, 0.2 mg/kg/day SC daily injection, LIRA), or treated with SANA (200 mg/kg/day PO) for a period of nine weeks. The high-fat diet was continued during the treatment period. Following week 9, all treatment was discontinued and weight regain in the mice was monitored through week 14.
The ability of SANA to prevent the regain of weight in mice following discontinuation of GLP-1 treatment was also assessed. Mice were fed a high-fat diet for a period of 5.5 weeks, and were then untreated (HFD), treated with GLP-1 agonist (semaglutide, 40 mg/kg s.c. every 3 days), or treated with semaglutide+SANA (10 mg/kg/day) for a period of 2.5 weeks. At week 8, except for the control group (HFD) all groups were treated only with SANA (10 mg/kg/day, s.c.).
A higher dose of SANA was then assessed for its ability to prevent the regain of weight in mice following discontinuation of GLP-1 treatment. […] The weight regain of the mice was monitored for another 1.5-6.5 weeks. *, **, ***, #, and ## show statistically significant differences, p<0.05, p<0.01, p<0.001, p<0.05, and p<0.01, respectively.

A short description of experiment [3]: Blood glucose measurements: fasting/basal glucose and glucose tolerance test (GTT) in HFD mice. The settings on record: SANA 200 mg/kg/day PO after discontinuation of concomitant SANA plus semaglutide, versus semaglutide 10 nmol/kg/day alone; FIGS. 6E, 6F. In kind it is in vivo, C57BL/6J mice. Here is the method:
Blood glucose measurements: Mice were kept in fasting for 16 h before fasting glucose measurement and glucose tolerance tests (GTT). When performing GTT, mice were injected (IP) with 1.5 g/kg body weight of glucose solution. Plasma glucose concentrations were measured from blood obtained from the tail using a hand-held glucometer (Accu-Chek, Roche).
Glucose tolerance (“GTT”), basal glucose, and glucose Area Under the Curve (“AUC”) were also measured following two weeks of treatment, and the results are presented graphically in FIGS. 2A, 2B, and 2C with * indicating a statistically significant difference, p<0.05.
A higher dose of SANA was then assessed for its ability to prevent the regain of weight in mice following discontinuation of GLP-1 treatment. Referring to FIGS. 6B and 6C, mice were fed a high-fat diet for a period of 5.5 weeks, and then were untreated (HFD), treated with GLP-1 agonist (semaglutide, 10 nmol/kg/day—SC), or treated with semaglutide+SANA for a period of 1.5 weeks, at which time, the semaglutide treatment was ceased and the groups were treated only with SANA (200 mg/kg/day, PO). The weight regain of the mice was monitored for another 1.5-6.5 weeks. *, **, ***, #, and ## show statistically significant differences, p<0.05, p<0.01, p<0.001, p<0.05, and p<0.01, respectively. […]

The nature of experiment [4]: Cumulative food intake of mice fed a high-fat diet (HFD). Format: in vivo, C57BL/6J mice. The following applies: SANA 200 mg/kg/day PO continued after 1.5 weeks of concomitant SANA plus semaglutide 10 nmol/kg/day; FIG. 6D. The protocol:
as §1
High-fat diet (HFD) feeding: Male C57BL/6J mice housed at 22° C. were fed a high-fat diet (42% fat and 0.25% cholesterol, AlN93G, LabDiet, USA), starting at 12 weeks of age and for a duration of 5 weeks prior to beginning administration of any active pharmaceutical ingredients. After the onset of the treatment, HFD ad libitum was maintained until the end of the experiments. […]
A higher dose of SANA was then assessed for its ability to prevent the regain of weight in mice following discontinuation of GLP-1 treatment. […] The weight regain of the mice was monitored for another 1.5-6.5 weeks. *, **, ***, #, and ## show statistically significant differences, p<0.05, p<0.01, p<0.001, p<0.05, and p<0.01, respectively. […]

Experiment [5] in a line: Serum non-esterified fatty acids (NEFA) in HFD mice. Format: in vivo, C57BL/6J mice. The following applies: 4 weeks; SANA 200 mg/kg/day, semaglutide 2 nmol/kg/day, alone or combined; FIG. 7B. Here is the method:
As described in Example 2A above, mice were fed with a high fat diet (HFD) for 5.5 weeks prior to the initiation of treatment, and the high-fat diet continued during the 4 week treatment period. Different doses of semaglutide were provided, either alone or in combination with SANA, and compared to SANA alone and untreated mice alone. Specifically, mice were either untreated (HFD) (n=5), or treated with SANA (200 mg/kg/day, n=5), semaglutide (0.25 nmol/kg/day, n=5), semaglutide (2 nmol/kg/day, n=4), a combination of SANA (200 mg/kg/day) and semaglutide (0.25 nmol/kg/day) (n=5), or a combination of SANA (200 mg/kg/day) and semaglutide (2 nmol/kg/day) (n=3).
Next, different doses of SANA were tested, either alone or in combination with semaglutide, and compared to treatment with semaglutide alone and untreated mice. Specifically, as described in Example 2A above, mice were fed with a high fat diet (HFD) for 5.5 weeks prior to the initiation of treatment, and the high-fat diet continued during the 1.5-week treatment period. […]

For experiment [6] the following is noted: cited from earlier work.
Setting [7] is: obese mice treated with SANA, WO2020058917A1 / US2023346728A1.

As for `O=C(O)c1cc(/C=C/[N+](=O)[O-])ccc1O` [SANA, 5-(2-nitroethenyl) salicylic acid], the “average reduction in weight during the treatment period” value in experiment [1] (HFD mice, nine weeks, liraglutide 0.2 mg/kg/day SC or SANA 200 mg/kg/day PO, FIG. 5) turned out to be 15%. Further, in experiment [1] (obese HFD mice, after four weeks, oral SANA 200 mg/kg/day, subcutaneous semaglutide 2 nmol/kg/day, alone or concomitant, FIGS. 3E, 3F), the average weight loss result is reported as “about 5%”. Further, the average weight loss entry in experiment [1] (obese HFD mice, after three weeks, SANA 15 mg/kg/day, semaglutide 2 nmol/kg/day, alone or concomitant, FIGS. 3A, 3B) was “about 5%”. Also, the weight loss entry in experiment [1] (obese HFD mice, after two weeks, SANA 200 mg/kg/day, liraglutide 0.2 mg/kg/day, alone or concomitant, FIGS. 1A, 1B) is recorded as “about 10%”. Moreover, the “regain of weight after discontinuation of semaglutide” value in experiment [2] (SANA 10 mg/kg/day s.c. after 2.5 weeks of semaglutide (40 mg/kg s.c. every 3 days) alone or SANA plus semaglutide, FIG. 6A) was “prevented regain of weight”. The “regain of weight after discontinuation of semaglutide” value in experiment [2] (SANA 200 mg/kg/day PO after 1.5 weeks of semaglutide (10 nmol/kg/day SC) alone or SANA plus semaglutide, FIGS. 6B, 6C) is recorded as “prevented regain of weight”. In addition, the “fasting glucose, lower” value in experiment [3] is 55%. The “cumulative food intake after discontinuation of semaglutide” value in experiment [4] is “remained lower”. Also, the “drop in serum NEFA levels” value in experiment [5] is “little to no change”. In addition, the “thermogenesis and beiging of white adipose tissue” value in experiment [6] (mice under diet-induced obesity (DIO), by activating creatine-dependent thermogenesis) was “stimulates thermogenesis and beiging of white adipose tissue”. Also, in experiment [6] (setting [7]), the fat accretion entry is recorded as “resistance to fat accretion”, the glucose intolerance entry was “improved glucose intolerance”, the liver steatosis entry is “absence of liver steatosis” and the “response to cold challenge” value was “improved response to cold challenge”.
